In ChEMBL document CHEMBL1124585, “Iodoaryl analogues of dioctanoylglycerol and 1-oleoyl-2-acetylglycerol as probes for protein kinase C” (J Med Chem, 1989) one finds Dose data, which are given here for three molecules.

This assay has as its target Protein kinase C (PKC) (Rattus norvegicus) (UniProt P05696+P68403+P09216+P63319+P09215+Q64617+Q9WTQ0+P09217). As to the kind of experiment: Activation of protein kinase C. The assay is classed as protein assay.
In turn, `CC(=O)OC(CO)COC(=O)CCCCCCCCCCCCCCc1cccc(I)c1` (stereo not drawn) came in with a Dose of 1 µM.
The value for `CC(=O)OCC(CO)OC(=O)CCCCCCCCCCCCCCc1cccc(I)c1` (stereo not drawn) was 1 µM; that for `CCCCCCCC(=O)OCC(CO)OC(=O)CCc1cccc(I)c1` (stereo not drawn) was 1 µM.
